# Data published in patent US12583895B2, “Polypeptides for restoring endothelial function and methods of use thereof” (Vanderbilt University, priority 2019, dated 2026).
# Non-standard residues stand in square brackets, D forms with d. No end group written: not given here. pS = N[C@@H](COP(=O)(O)O)C(=O)O
# Tests used:
# p38 MAPK phosphorylation = p38 MAPK phosphorylation (Western blot) in rat aorta after subfailure stretch injury; format: cell-based; settings: NiPp 500 μM, 1 h, immunoblot
# Experimental: Freshly isolated rat aorta (RA) was subjected to subfailure stretch and incubated in PL in the absence (S) or presence of NiPp (500 μM) for 1 h at room temperature. […] The percent relaxation was determined as a change to the maximal PE-induced contraction. n=5 rats; #p<0.05, two-way ANOVA. […] Quantification of relative phosphorylation to total p38MAPK level is shown. N=10. *p<0.05, in one-way ANOVA with Tukey post-test. NiPp restores endothelial dysfunction and reduced p38 MAPK phosphorylation induced by stretch injury in RA.
# Vascular injury and treatment of RA. Abdominal RA was subjected to subfailure stretch to the haptic endpoint (˜200% the resting length) for 10 s and repeated twice as previously described and a segment was reserved as non-stretched control. The tissues were then cut into 1-2 mm rings and incubated for 1 h at room temperature in PL with or without NiPp (500 μM). To induce acidotic injury, thoracic RA were cut into 1-2 mm rings and pretreated in the absence or presence of NiPp (500 μM) in PL for 30 min. […]
# Western blot Analysis. […] The protein-antibody complexes were visualized and quantified using the Odyssey Infrared Imaging System. Phosphorylation was calculated as a ratio of the phosphorylated protein to total protein and was then normalized to the untreated tissues (Ctrl) with the control value set as 1.0.
# p38 MAPK δ isoform = molecular target: T1, p38 MAPK δ isoform (Homo sapiens, UniProt O15264); test: SelectScreen kinase profiling; format: biochemical; settings: NiPp 100 μM
# T1 sequence (O15264 1-365): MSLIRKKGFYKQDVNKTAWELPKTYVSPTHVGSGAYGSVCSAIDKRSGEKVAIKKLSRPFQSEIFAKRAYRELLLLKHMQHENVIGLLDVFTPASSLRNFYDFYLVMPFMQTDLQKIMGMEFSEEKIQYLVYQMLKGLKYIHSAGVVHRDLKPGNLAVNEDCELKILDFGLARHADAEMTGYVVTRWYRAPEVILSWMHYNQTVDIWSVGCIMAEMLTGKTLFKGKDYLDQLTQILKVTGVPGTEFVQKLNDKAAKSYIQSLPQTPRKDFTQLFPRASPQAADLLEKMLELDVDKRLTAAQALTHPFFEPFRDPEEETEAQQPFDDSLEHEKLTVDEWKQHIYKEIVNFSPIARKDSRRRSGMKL
# Experimental: Kinase profiling. NiPp was dissolved in DMSO, screened at a single concentration of 100 μM using in vitro kinase assays (SelectScreen Kinase Profiling Service; ThermoFisher Scientific, Madison WI) including the Z'LYTE and Adapta kinase activity assays and the LanthaScreen Eu Kinase Binding Assay). Candidate interactions were predicted using STRING Version 11 (www.string-db-org) with the human database at confidence=0.7.
# Since NiPp treatment was associated with decreased phosphorylation of p38 MAPK in RA, a mechanism of NiPp function can kinase inhibition. Therefore, a kinase profiling assay was performed to determine the effect of NiPp on the activity of a panel of kinases in vitro. The top two kinases inhibited by NiPp were MSK1 and p38 MAPKα. Inhibition to the p38 MAPKα isoform appeared to be specific as inhibition by NiPp to the other isoforms (β, δ, and γ) in the kinaseprofiling screen were only at 5, 3, and 3% respectively. Despite high sequence homology, the isoforms have difference in tissue expression, upstream kinase activators and downstream substrates. The p38 MAPKα isoform, initially identified as a protein that underwent phosphorylation in response to endotoxin treatment and hyperosmolarity shock, plays a role in endothelial dysfunction in that inhibition of this isoform leads to improved endothelial function in animal models of cardiovascular diseases including cardiac hypertrophy, balloon injury, salt/fat induced hypertension and in hypercholesterolemic patients. The α-isoform is also a key regulator of pro-inflammatory cytokine production and itself can be activated by IL1-β. MSK1, a downstream kinase of the p38 MAPK activation (FIG. 19), has complex cell-dependent roles in inflammatory responses. In endothelial cells, MSK1 promotes CREB activation in response to TNFα.
substance,measurement,setting,value
"YARAAARQARASPAARRA(pS)AILPG (YARAAARQARASPAARRA[pS]AILPG) [NiPp, Cell-permeant phosphopeptide mimetic of Niban: transduction domain … conjugated to the region surrounding serine 602 of Niban]",p38 MAPK phosphorylation relative to total p38 MAPK after stretch injury,p38 MAPK phosphorylation,reduced
same,% inhibition of p38 MAPK δ isoform,p38 MAPK δ isoform,3%
